Results from BindingDB's records for doi:10.1021/jm400050y (University of Michigan, 2013).
pEC50, pKi: −log10 of the molar value.

Columns and labels:
[1] = target: T1, Mu-type opioid receptor (Rattus norvegicus, UniProt P33535); experiment: Displacement of [3H]diprenorphine from rat MOR expressed in rat C6 cells after 1 hr by liquid scintillation counting analysis
[2] = target: T1, Mu-type opioid receptor; experiment: Agonist activity at rat MOR expressed in rat C6 cells assessed as stimulation of [35S]GTPgammaS binding after 1 hr by liquid scintillation counting analysis
[3] = target: Delta-type opioid receptor (Rattus norvegicus, UniProt P33533); experiment: Displacement of [3H]diprenorphine from rat DOR expressed in rat C6 cells after 1 hr by liquid scintillation counting analysis
Chain of Delta-type opioid receptor (P33533 whole entry): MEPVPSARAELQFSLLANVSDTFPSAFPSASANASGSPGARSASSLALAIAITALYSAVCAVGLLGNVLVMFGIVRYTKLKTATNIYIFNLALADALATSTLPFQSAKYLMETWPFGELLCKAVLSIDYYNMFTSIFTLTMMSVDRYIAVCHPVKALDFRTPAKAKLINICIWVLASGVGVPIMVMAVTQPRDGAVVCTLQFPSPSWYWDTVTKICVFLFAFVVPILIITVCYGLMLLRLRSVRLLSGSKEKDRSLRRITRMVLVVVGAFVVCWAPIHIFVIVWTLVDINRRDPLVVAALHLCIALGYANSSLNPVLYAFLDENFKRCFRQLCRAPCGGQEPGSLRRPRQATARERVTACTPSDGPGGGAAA

T1 sequence (P33535 whole entry): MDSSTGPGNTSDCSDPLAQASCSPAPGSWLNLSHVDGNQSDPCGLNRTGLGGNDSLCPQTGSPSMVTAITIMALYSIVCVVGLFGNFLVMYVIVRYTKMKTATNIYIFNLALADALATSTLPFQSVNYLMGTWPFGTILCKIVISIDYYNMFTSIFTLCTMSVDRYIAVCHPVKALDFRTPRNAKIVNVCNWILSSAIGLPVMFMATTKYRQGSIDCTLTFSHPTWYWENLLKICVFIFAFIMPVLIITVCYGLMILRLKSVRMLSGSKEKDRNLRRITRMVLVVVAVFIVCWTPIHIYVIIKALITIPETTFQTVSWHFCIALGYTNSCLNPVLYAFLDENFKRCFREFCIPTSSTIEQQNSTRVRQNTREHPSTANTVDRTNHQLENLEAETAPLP

With `Cc1cc(O)cc(C)c1C[C@H](N)C(=O)N[C@@H]1CCNc2ccc(CCc3ccccc3)cc21` as the molecule, how does the pKi [1] read?
Its pKi is 9.62.

And the pEC50 [2]?
The pEC50 was 8.96.

And the pKi [3]?
The pKi was 8.05.

`Cc1cc(O)cc(C)c1C[C@H](N)C(=O)N[C@H]1CCNc2ccc(CCc3ccccc3)cc21` was tested. Which pKi [1] did it give?
Its pKi is 7.80.

What about the pKi [3] of the same molecule?
Its pKi is 6.92.
